Experimental findings from BindingDB's records for doi:10.7270/Q2TX3CTT (Broad Institute, 2010) are described below.

Structures are written as SMILES. pEC50: −log10 of the molar value.

In the experiment the target is Glycogen synthase kinase-3 beta (Homo sapiens, UniProt P49841). The experiment is described as follows: GSK3beta kinase inhibitor potency, dose response, biochemical, luminescence, cell-free homogeneous, retest (AID 434954).
Sequence of Glycogen synthase kinase-3 beta (P49841 whole entry): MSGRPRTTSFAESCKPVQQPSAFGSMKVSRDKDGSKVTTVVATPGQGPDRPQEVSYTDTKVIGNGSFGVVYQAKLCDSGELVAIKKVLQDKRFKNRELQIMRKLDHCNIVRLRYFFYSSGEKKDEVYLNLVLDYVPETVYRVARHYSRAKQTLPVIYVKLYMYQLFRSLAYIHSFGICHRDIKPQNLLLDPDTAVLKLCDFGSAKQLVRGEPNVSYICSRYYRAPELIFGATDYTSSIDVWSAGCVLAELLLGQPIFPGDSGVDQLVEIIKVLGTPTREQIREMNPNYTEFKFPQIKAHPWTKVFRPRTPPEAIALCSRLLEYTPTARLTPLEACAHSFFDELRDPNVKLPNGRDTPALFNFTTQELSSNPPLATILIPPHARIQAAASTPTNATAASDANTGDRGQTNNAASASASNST
One may read the pEC50 as the negative decadic logarithm of the EC50, by convention in mol/L. Read a high pEC50 as a small EC50. For `CCc1c(C(=O)Nc2ccccc2C(N)=O)csc1C` [SMR000679541], the negative logarithm of the EC50 (pEC50) was < 3.52. In the case of `C/C=C/c1ccc(OCC(=O)O)c(OC)c1`, the pEC50 is < 3.52. Molecule `O=C(Nc1ccncc1)Nc1ccccn1` [1-pyridin-2-yl-3-pyridin-4-yl-urea] had a pEC50 of 5.30. Then `Cc1ccc(-c2nn(-c3ccccc3)cc2C=NNS(=O)(=O)c2ccccc2)cc1` [SMR000186234], with < 3.52; and `Nc1nc(NCCCN2CCOCC2)nc(Nc2cccc(F)c2)c1[N+](=O)[O-]` [SMR000436037], with 4.06; and `CC(C)C(=O)NC(C)C(c1cccs1)N1CCN(c2ccccc2)CC1` (stereo not given) [SMR000016589], with < 3.52. For `COc1nc(N(C)C)nc(N(C#N)CCOC(C)=O)n1` [2-[cyano-[4-(dimethylamino)-6-methoxy-1,3,5-triazin-2-yl]amino]ethyl ethanoate], the pEC50 is < 3.52. With `COc1cccc(-c2nc(SCC(=O)Nc3nc(-c4ccccc4)c(C)s3)[nH]c(=O)c2C#N)c1`, the pEC50 is < 3.52.

As to `Cn1c(=S)n(CCC(=O)O)c2ccccc21` [SMR000273673], the pEC50 was < 3.52. With `CC1(C)CC(=O)C=C(Nc2cccc(Cl)c2Cl)C1` [3-[(2,3-dichlorophenyl)amino]-5,5-dimethylcyclohex-2-en-1-one], the pEC50 is < 3.52. The result for `CCCCC(=O)Nc1cc(C)c(NC(=O)c2cccs2)cn1` [N-[4-methyl-6-(1-oxopentylamino)-3-pyridinyl]-2-thiophenecarboxamide] reads < 3.52; that for `O=C(O)CCN1C(=O)/C(=C\c2ccc(-c3nc4ccccc4s3)o2)SC1=S` [3-[(5E)-5-[[5-(1,3-benzothiazol-2-yl)-2-furanyl]methylidene]-4-oxo-2-sulfanylidene-3-thiazolidinyl]propanoic acid], < 3.52.

As to `CC(C)Cc1ccccc1O` [SMR000639202], the pEC50 is < 3.52.

For `COCCn1c(SCC(=O)Nc2ccc(S(N)(=O)=O)cc2)nc2ccccc21`, the pEC50 is < 3.52. Consider `O=C(O)Cn1cc(CN=Nc2ccc([N+](=O)[O-])cn2)c2ccccc21` [SMR000540193], for which the pEC50 is 5.08. In the case of `Cc1c(O)c(CN2CCCCC2)cc2c1oc(=O)c1ccccc12` [MLS000551544], the pEC50 was < 3.52. Turning to `Cc1ccc2c(c1)cc1c(O)nncn12` [MLS000551564], the pEC50 is < 3.52. In the case of `Cc1ccnc(NC(=O)Cn2ccc([N+](=O)[O-])n2)c1` [N-(4-methylpyridin-2-yl)-2-(3-nitropyrazol-1-yl)ethanamide], the pEC50 was < 3.52. Then `O=C(O)c1cccc(Nc2nc(-c3ccccc3)nc3ccccc23)c1` [SMR000538934], with < 3.52; and `Cc1ccc(C(=O)NN=Cc2ccc(-c3ccc(Cl)c(Cl)c3)o2)cn1` [SMR000431370], with < 3.52; and `Cc1ccc(C)c(N2CCN(C(=O)Cn3ncc4c([nH]c5ccc(C)cc54)c3=O)CC2)c1` [3-[2-[4-(2,5-dimethylphenyl)piperazin-1-yl]-2-oxidanylidene-ethyl]-8-methyl-2H-pyridazino[4,5-b]indol-4-one], with < 3.52. On to `CC(C)C1Cc2c(sc3c2c(=O)n(-c2ccccc2)c2n[nH]c(=S)n32)CO1` (stereo not given) [7-Isopropyl-1-mercapto-4-phenyl-6,9-dihydro-4H,7H-8-oxa-10-thia-2,3,4,10b-tetraaza-cyclopenta[a]fluo ren-5-one], for which the pEC50 was < 3.52. The result for `Fc1cccc(Cl)c1CSc1nnc(-c2ccncc2)o1` [2-[(2-chloro-6-fluorophenyl)methylthio]-5-pyridin-4-yl-1,3,4-oxadiazole] reads 5.03; that for `CN1CCN(CCC2Oc3cc([N+](=O)[O-])ccc3NC2=O)CC1` (stereo not given) [SMR000336558], < 3.52; that for `CCCn1cc(SCC(=O)NCc2ccco2)c2ccccc21` [MLS000095681], < 3.52. `COc1ccc(-n2c(=O)c3c4c(sc3n3c(=S)[nH]nc23)CCC4)cc1` [1-Mercapto-4-(4-methoxy-phenyl)-7,8-dihydro-4H,6H-9-thia-2,3,4,9b-tetraaza-cyclopenta[b]-as-indace n-5-one] had a pEC50 of 4.21. Then `O=C(CCSc1nnc(-c2ccncc2)o1)Nc1ccc(F)cc1` [N-(4-fluorophenyl)-3-[(5-pyridin-4-yl-1,3,4-oxadiazol-2-yl)thio]propanamide], with < 3.52. The result for `CCOC(=O)c1cnc2ccccc2c1Nc1ccc(C(=O)O)cc1` [SMR000299060] reads < 3.52. On to `COc1ccc(Cl)cc1-n1c(C)ccc1C` [MLS000680869], for which the pEC50 was < 3.52. Then `COc1ccc2nc(NC(=O)CCNC(=O)c3ccccc3Cl)sc2c1` [2-chloro-N-[3-[(6-methoxy-1,3-benzothiazol-2-yl)amino]-3-oxopropyl]benzamide], with < 3.52; and `O=C(COc1ccccc1)N1CCN(S(=O)(=O)c2cccs2)CC1` [1-(phenoxyacetyl)-4-(2-thienylsulfonyl)piperazine], with < 3.52. The result for `Nc1ncnc(N2CCc3ccccc32)c1[N+](=O)[O-]` [SMR000323059] reads 4.85. The result for `O=C(O)c1ccccc1NCc1ccncc1` [SMR000031483] reads < 3.52. Turning to `CC1=C(C(=O)N2CCCCC2)C(c2cccs2)C2C(=O)CCCC2=N1` (stereo not given) [2-methyl-3-piperidin-1-ylcarbonyl-4-thiophen-2-yl-4,6,7,8-tetrahydro-1H-quinolin-5-one], the pEC50 is < 3.52. In the case of `CSc1nc2c(c(=O)[nH]1)C(c1cccs1)C1C(=O)CCCC1=N2` (stereo not given), the pEC50 is < 3.52. For `COc1cccc(C(=O)NCC(c2ccco2)N2CCc3ccccc3C2)c1` (stereo not given) [N-[2-(3,4-dihydro-1H-isoquinolin-2-yl)-2-(furan-2-yl)ethyl]-3-methoxy-benzamide], the pEC50 was < 3.52. The result for `C=CCNC(=O)c1onc(CSc2cccc(OC)c2)c1C(=O)NCC=C` [3-[(3-methoxyphenyl)sulfanylmethyl]-N4,N5-bis(prop-2-enyl)-1,2-oxazole-4,5-dicarboxamide] reads < 3.52; that for `O=C(/C=C/c1ccc2ccccc2c1)c1ccoc1` [SMR000179251], < 3.52.

For `Cc1ccc(C(=O)N/N=C/c2ccc(-c3ccc([N+](=O)[O-])cc3)o2)cn1` [SMR000431371], the pEC50 was < 3.52. Then `CCN(CC)Cc1c(C(=O)NN=Cc2cccc3ccccc23)nnn1-c1nonc1N` [1-(4-amino-1,2,5-oxadiazol-3-yl)-5-(diethylaminomethyl)-N-(1-naphthalenylmethylideneamino)-4-triazolecarboxamide], with < 3.52; and `COc1ccc(-c2nn(-c3ccccc3)cc2CN=O)cc1` [3-(4-methoxyphenyl)-1-phenyl-4-pyrazolecarboxaldehyde oxime], with 6.36; and `Cc1cccc(Nc2nc(N)c([N+](=O)[O-])c(N3CCOCC3)n2)c1` [6-Morpholin-4-yl-5-nitro-N*2*-m-tolyl-pyrimidine-2,4-diamine], with < 3.52. As to `CC(C)N1CC(C(=O)Nc2ccc(Br)c(Cl)c2)CC1=O` (stereo not given) [N-(4-bromo-3-chlorophenyl)-5-oxo-1-propan-2-yl-3-pyrrolidinecarboxamide], the pEC50 is < 3.52.

`N#Cc1c(N)nc(C(C#N)C#N)c(C#N)c1-c1ccccc1` had a negative-log EC50 (pEC50) of 4.72. The result for `O=C1NC(=O)c2c(NC(=O)C3CCCO3)cccc21` (stereo not given) [MLS000064410] reads < 3.52.
